Measurements published in US9440978B2, “Imidazolo-, oxazolo-, and thiazolopyrimidine modulators of TRPV1” (Janssen Pharmaceutica NV, priority 2007, dated 2016).
Where a name gives a salt, the structure may show the parent alone.

Tests used:
human TRPV1 = molecular target: T1, human TRPV1 (Homo sapiens, UniProt Q8NER1); assay: Block of capsaicin-induced Ca2+ influx, human assay (hTRPV1/HEK293, FLIPR); assay type: cell-based; settings: HEK293 cells transfected with human TRPV1; 150 nM capsaicin challenge; mean; > value = solubility limit in assay medium
T1 construct: expressed in transfected cells; host or cells: HEK293
T1 sequence (Q8NER1 whole entry): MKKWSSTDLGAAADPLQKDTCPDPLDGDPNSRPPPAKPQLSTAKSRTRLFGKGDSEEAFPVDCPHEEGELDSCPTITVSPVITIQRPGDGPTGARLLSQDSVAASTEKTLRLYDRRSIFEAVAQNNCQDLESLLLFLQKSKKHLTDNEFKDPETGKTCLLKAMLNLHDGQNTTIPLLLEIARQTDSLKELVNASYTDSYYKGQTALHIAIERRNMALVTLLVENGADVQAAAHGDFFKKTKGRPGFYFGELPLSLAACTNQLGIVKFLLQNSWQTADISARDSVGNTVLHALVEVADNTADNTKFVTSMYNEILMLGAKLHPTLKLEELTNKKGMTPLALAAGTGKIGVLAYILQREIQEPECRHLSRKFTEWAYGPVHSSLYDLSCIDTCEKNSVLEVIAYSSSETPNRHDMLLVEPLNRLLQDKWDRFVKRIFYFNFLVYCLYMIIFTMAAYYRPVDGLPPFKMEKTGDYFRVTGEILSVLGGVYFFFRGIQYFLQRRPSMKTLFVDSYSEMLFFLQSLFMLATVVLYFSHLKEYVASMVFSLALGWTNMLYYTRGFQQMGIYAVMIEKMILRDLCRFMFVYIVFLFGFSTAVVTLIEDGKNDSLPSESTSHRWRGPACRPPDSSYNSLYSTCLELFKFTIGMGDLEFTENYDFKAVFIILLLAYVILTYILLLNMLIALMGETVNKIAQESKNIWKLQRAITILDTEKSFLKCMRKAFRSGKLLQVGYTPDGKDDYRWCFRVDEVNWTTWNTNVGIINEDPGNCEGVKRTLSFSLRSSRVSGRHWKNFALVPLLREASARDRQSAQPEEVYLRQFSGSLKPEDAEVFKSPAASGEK
Description: (§1) HEK293 cells were transfected with human TRPV1 cloned in pcDNA3.1zeo(+) using the Effectene non-liposomal lipid based transfection kit (Qiagen) (hTRPV1/HEK293). hTRPV1/HEK293 cells were routinely grown as monolayers under selection in zeocin (200 μg/mL; Invitrogen) in Dulbecco's Modified Eagle Medium (DMEM, Gibco BRL) supplemented with 10% fetal bovine serum, and penicillin/streptomycin (50 units/mL) in 5% CO2 at 37° C. Cells were passaged frequently, every 3-5 days, to avoid overgrowth, depletion of essential medium components, or acidic medium exposure. Cells were passaged using a brief wash in 0.05% trypsin with 1 mM EDTA, followed by dissociation in divalent-free phosphate-buffered saline (Hyclone #SH30028.02). […] The assay buffer was composed of 130 mM NaCl, 2 mM KCl, 2 mM MgCl2, 10 mM HEPES, 5 mM glucose, and either 2 mM or 20 μM CaCl2. On the day of the experiment, the culture medium was replaced with 2 mM calcium assay buffer using an automated plate washer (ELx405; Biotek, VT). […] After loading the cells, the dye solution was replaced with 50 μL/well of 20 μM calcium assay buffer using the ELx405 plate washer. Test compounds (50 μL/well) were added to the plate and incubated for 30 min. Intracellular Ca^2+ levels were subsequently assayed using a Fluorometric Imaging Plate Reader (FLIPR™ instrument, Molecular Devices, CA) to simultaneously monitor Fluo-3 fluorescence in all wells (λexcitation=488 nm, λemission=540 nm) during challenge with agonist (capsaicin). The IC50 values were determined. […] The contents of the wells were mixed 3 times (40 μL mix volume) immediately after the additions were made. Concentration-dependence of block was determined by exposing each well of cells in duplicate rows of a 96-well plate to a serial dilution of test compound. The concentration series usually started at 10 μM with a three-fold serial decrement in concentration. The magnitude of the capsaicin response was determined by measuring the change in fluo3 fluorescence before and 100 seconds after the addition of the agonist. Data were analyzed using a non-linear regression program (Origin; OriginLab, MA).
(§2) IC50 values shown are the average (mean) of the results obtained. […] Compounds were tested as in the free base, trifluoroacetic acid salt, or hydrochloride salt form.

rat TRPV1 = molecular target: T2, rat TRPV1 (Rattus norvegicus, UniProt O35433); assay: Block of capsaicin-induced Ca2+ influx, rat assay (rTRPV1/HEK293, FLIPR); assay type: cell-based; settings: HEK293 cells transfected with rat TRPV1; capsaicin challenge; mean; > value = solubility limit in assay medium; read-out: Rat IC50
T2 construct: expressed in transfected cells; host or cells: HEK293
T2 sequence (O35433 whole entry): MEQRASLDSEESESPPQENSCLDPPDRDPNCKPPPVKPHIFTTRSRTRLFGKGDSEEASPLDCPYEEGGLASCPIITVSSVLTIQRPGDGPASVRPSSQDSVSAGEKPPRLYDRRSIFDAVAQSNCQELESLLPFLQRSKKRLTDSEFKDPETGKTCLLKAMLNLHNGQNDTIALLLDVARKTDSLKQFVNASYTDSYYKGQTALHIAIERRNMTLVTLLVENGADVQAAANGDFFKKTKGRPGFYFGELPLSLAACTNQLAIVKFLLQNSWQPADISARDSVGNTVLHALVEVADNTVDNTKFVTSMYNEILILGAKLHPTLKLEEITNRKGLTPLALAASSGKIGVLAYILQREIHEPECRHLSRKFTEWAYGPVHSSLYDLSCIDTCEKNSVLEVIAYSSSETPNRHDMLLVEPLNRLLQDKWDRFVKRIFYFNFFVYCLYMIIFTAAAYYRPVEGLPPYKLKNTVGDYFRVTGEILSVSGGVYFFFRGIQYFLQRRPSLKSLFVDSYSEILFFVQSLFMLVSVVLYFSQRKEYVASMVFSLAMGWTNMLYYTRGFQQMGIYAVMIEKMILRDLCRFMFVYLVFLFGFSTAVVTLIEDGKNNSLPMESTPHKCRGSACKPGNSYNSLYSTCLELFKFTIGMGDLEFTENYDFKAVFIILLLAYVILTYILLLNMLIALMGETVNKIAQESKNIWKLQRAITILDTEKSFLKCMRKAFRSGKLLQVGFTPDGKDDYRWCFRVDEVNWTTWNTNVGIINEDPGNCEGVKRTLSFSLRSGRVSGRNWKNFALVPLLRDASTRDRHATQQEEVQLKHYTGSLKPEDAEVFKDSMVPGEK
Description: as §1
This assay was performed similarly to the human assay described above, but using HEK293 cells transfected with rat TRPV1 (rTRPV1/HEK293).
as §2

SMILES | IC50 (human TRPV1) | IC50 (rat TRPV1)
Clc1ccc(Nc2ncnc3sc(Cc4c(Cl)cccc4Cl)nc23)cc1 [Example 40, N-(4-Chlorophenyl)-2-(2,6-dichlorobenzyl)[1,3]thiazolo[5,4-d]pyrimidin-7-amine] | 49 nM | 51 nM
CC(C)(C)c1ccc(Nc2ncnc3sc(Cc4ccccc4C(F)(F)F)nc23)cc1 [Example 50, N-(4-tert-Butylphenyl)-2-[2-(trifluoromethyl)benzyl][1,3]thiazolo[5,4-d]pyrimidin-7-amine] | 34 nM | 6 nM
CC(C)N1CCN(c2nc(Nc3ccc(C(F)(F)F)cc3)c3nc(Cc4c(Cl)cccc4Cl)sc3n2)CC1 [Example 75, [2-(2,6-Dichloro-benzyl)-5-(4-isopropyl-piperazin-1-yl)-thiazolo[5,4-d]pyrimidin-7-yl]-(4-trifluoromethyl-phenyl)-amine trifluoroacetic acid salt] |  | 132 nM
FC(F)(F)c1ccccc1Nc1ncnc2sc(Cc3c(Cl)cccc3Cl)nc12 [Example 23, 2-(2,6-Dichlorobenzyl)-N-[2-(trifluoromethyl)phenyl][1,3]thiazolo[5,4-d]pyrimidin-7-amine] | > 6670 nM | 1790 nM
FC(F)(F)c1ccc(Nc2ncnc3[nH]c(Cc4c(Cl)cccc4Cl)nc23)cc1 [Example 109, [8-(2,6-Dichloro-benzyl)-9H-purin-6-yl]-(4-trifluoromethyl-phenyl)-amine trifluoroacetic acid salt] | 716 nM | 116 nM
CC(C)CN1CCN(c2nc(Nc3ccc(C(F)(F)F)cc3)c3nc(Cc4c(Cl)cccc4Cl)sc3n2)CC1 [Example 83, [2-(2,6-Dichloro-benzyl)-5-(4-isobutyl-piperazin-1-yl)-thiazolo[5,4-d]pyrimidin-7-yl]-(4-trifluoromethyl-phenyl)-amine trifluoroacetic acid salt] | 136 nM | 12 nM
CS(=O)(=O)c1ccc(Nc2ncnc3sc(Cc4c(Cl)cccc4Cl)nc23)cc1F [Example 45, 2-(2,6-Dichlorobenzyl)-N-[3-fluoro-4-(methylsulfonyl)phenyl][1,3]thiazolo[5,4-d]pyrimidin-7-amine] | 274 nM | 183 nM
CC1CCCN1c1nc(Nc2ccc(C(F)(F)F)cc2)c2nc(Cc3c(Cl)cccc3Cl)sc2n1 (stereo not shown) [Example 64, [2-(2,6-Dichloro-benzyl)-5-(2-methyl-pyrrolidin-1-yl)-thiazolo[5,4-d]pyrimidin-7-yl]-(4-trifluoromethyl-phenyl)-amine] | 466 nM | 323 nM
Cc1ccccc1Cc1nc2c(Nc3ccc(S(C)(=O)=O)cc3)ncnc2s1 [Example 19, 2-(2-Methylbenzyl)-N-[4-(methylsulfonyl)phenyl][1,3]thiazolo[5,4-d]pyrimidin-7-amine] | 471 nM | 247 nM
CC(C)(C)c1ccc(Nc2ncnc3oc(Cc4c(Cl)cccc4Cl)nc23)cc1 [Example 2, (4-tert-Butyl-phenyl)-[2-(2,6-dichloro-benzyl)-oxazolo[5,4-d]pyrimidin-7-yl]-amine] | 75 nM | 30 nM
FC(F)(F)c1ccc(Nc2nc(N3CCNCC3)nc3sc(Cc4c(Cl)cccc4Cl)nc23)cc1 [Example 74, [2-(2,6-Dichloro-benzyl)-5-piperazin-1-yl-thiazolo[5,4-d]pyrimidin-7-yl]-(4-trifluoromethyl-phenyl)-amine trifluoroacetic acid salt] |  | > 6670 nM
COC(=O)C(C)(C)c1ccc(Nc2ncnc3sc(Cc4c(Cl)cccc4Cl)nc23)cc1 [Example 26, Methyl 2-(4-{[2-(2,6-dichlorobenzyl)[1,3]thiazolo[5,4-d]pyrimidin-7-yl]amino}phenyl)-2-methylpropanoate] |  | 74 nM
FC(F)(F)c1ccc(Nc2nc(N3CCCCC3)nc3sc(Cc4c(Cl)cccc4Cl)nc23)cc1 [Example 81, [2-(2,6-Dichloro-benzyl)-5-piperidin-1-yl-thiazolo[5,4-d]pyrimidin-7-yl]-(4-trifluoromethyl-phenyl)-amine] |  | 14 nM
O=S(=O)(c1ccc(Nc2ncnc3sc(Cc4c(Cl)cccc4Cl)nc23)cc1)N1CCNCC1 [Example 28, 2-(2,6-Dichlorobenzyl)-N-[4-(piperazin-1-ylsulfonyl)phenyl][1,3]thiazolo[5,4-d]pyrimidin-7-amine] |  | > 2220 nM
COC[C@@H]1CCCN1c1nc(Nc2ccc(C(F)(F)F)cc2)c2nc(Cc3c(Cl)cccc3Cl)sc2n1 [Example 71, (S)-[2-(2,6-Dichloro-benzyl)-5-(2-methoxymethyl-pyrrolidin-1-yl)-thiazolo[5,4-d]pyrimidin-7-yl]-(4-trifluoromethyl-phenyl)-amine] |  | 2450 nM
CC(C)(C)c1nnc(Nc2ncnc3sc(Cc4c(Cl)cccc4Cl)nc23)s1 [Example 99, N-(5-tert-Butyl-1,3,4-thiadiazol-2-yl)-2-(2,6-dichlorobenzyl)[1,3]thiazolo[5,4-d]pyrimidin-7-amine] |  | 195 nM
CC(C)COc1nc(Nc2ccc(C(F)(F)F)cc2)c2nc(Cc3c(Cl)cccc3Cl)sc2n1 [Example 103, [2-(2,6-Dichloro-benzyl)-5-isobutoxy-thiazolo[5,4-d]pyrimidin-7-yl]-(4-trifluoromethyl-phenyl)-amine] |  | 16 nM
FC(F)(F)c1ccc(Nc2ncnc3sc(Cc4ccc(Cl)cc4Cl)nc23)cc1 [Example 27, 2-(2,4-Dichlorobenzyl)-N-[4-(trifluoromethyl)phenyl][1,3]thiazolo[5,4-d]pyrimidin-7-amine] |  | 43 nM
CSc1nc(Nc2ccc(C(F)(F)F)cc2)c2nc(Cc3c(Cl)cccc3Cl)sc2n1 [Example 5, [2-(2,6-Dichloro-benzyl)-5-methylsulfanyl-thiazolo[5,4-d]pyrimidin-7-yl]-(4-trifluoromethyl-phenyl)-amine] |  | > 6670 nM
CC(CO)Nc1nc(Nc2ccc(C(F)(F)F)cc2)c2nc(Cc3c(Cl)cccc3Cl)sc2n1 (stereo not shown) [Example 70, 2-[2-(2,6-Dichloro-benzyl)-7-(4-trifluoromethyl-phenylamino)-thiazolo[5,4-d]pyrimidin-5-ylamino]-propan-1-ol] |  | 1020 nM
FC(F)(F)c1ccc(Nc2nc(NCCN3CCCC3)nc3sc(Cc4c(Cl)cccc4Cl)nc23)cc1 [Example 82, 2-(2,6-Dichloro-benzyl)-N^5-(2-pyrrolidin-1-yl-ethyl)-N^7-(4-trifluoromethyl-phenyl)-thiazolo[5,4-d]pyrimidine-5,7-diamine trifluoroacetic acid salt] |  | 959 nM
FC(F)(F)c1ccc(Nc2nc(N3CCC3)nc3sc(Cc4c(Cl)cccc4Cl)nc23)cc1 [Example 73, [5-Azetidin-1-yl-2-(2,6-dichloro-benzyl)-thiazolo[5,4-d]pyrimidin-7-yl]-(4-trifluoromethyl-phenyl)-amine] |  | 63 nM
FC(F)(F)c1ccc(Nc2ncnc3sc(Cc4ccccc4C(F)(F)F)nc23)cc1 [Example 30, 2-[2-(Trifluoromethyl)benzyl]-N-[4-(trifluoromethyl)phenyl][1,3]thiazolo[5,4-d]pyrimidin-7-amine] |  | 4 nM
FC(F)(F)c1ccc(Nc2ncnc3sc(Cc4ccc(Cl)cc4Cl)nc23)cn1 [Example 29, 2-(2,4-Dichlorobenzyl)-N-[6-(trifluoromethyl)pyridin-3-yl][1,3]thiazolo[5,4-d]pyrimidin-7-amine] |  | 600 nM
CC(C)Nc1nc(Nc2ccc(C(F)(F)F)cc2)c2nc(Cc3c(Cl)cccc3Cl)sc2n1 [Example 72, 2-(2,6-Dichloro-benzyl)-N^5-isopropyl-N^7-(4-trifluoromethyl-phenyl)-thiazolo[5,4-d]pyrimidine-5,7-diamine] |  | 72 nM
CSc1ccc(Nc2ncnc3sc(Cc4c(Cl)cccc4Cl)nc23)cn1 [Example 38, 2-(2,6-Dichlorobenzyl)-N-[6-(methylsulfanyl)pyridin-3-yl][1,3]thiazolo[5,4-d]pyrimidin-7-amine] |  | 99 nM
FC(F)(F)c1ccc(Nc2ncnc3sc(Cc4ccccc4C(F)(F)F)nc23)cn1 [Example 31, 2-[2-(Trifluoromethyl)benzyl]-N-[6-(trifluoromethyl)pyridin-3-yl][1,3]thiazolo[5,4-d]pyrimidin-7-amine] |  | 13 nM
FC(F)(F)c1nnc(Nc2ncnc3sc(Cc4c(Cl)cccc4Cl)nc23)s1 [Example 98, 2-(2,6-Dichlorobenzyl)-N-[5-(trifluoromethyl)-1,3,4-thiadiazol-2-yl][1,3]thiazolo[5,4-d]pyrimidin-7-amine] |  | 1050 nM
